PubChem BioAssay AID1963428 (Molecular Pharmacology Branch, DTP, NCI, 2024)

Tested on: 171881-019-R-J1-PDC complex spheroid growth, % test/control
Assay: Anticancer human tumor 171881-019-R-J1-PDC patient-derived invasive breast carcinoma cell line growth inhibition [Asc]
Settings: for IC50: curve of first compound; for viability, T/C: stronger effect = lower value; active = viability on the fitted dose curve at most 10% of control; inactive = the rest
How it was run: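 Spheroid model: tumor line + HUVEC + hMSC. Single agents and combinations; top conc. at/near clinical Cmax (10 microM if undetermined), half-log dilutions. DMSO stocks at 800-fold test concentration.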

[1] = second compound 0.1 µM, first compound 0.0316 µM
[2] = second compound 0.1 µM, first compound 0.1 µM
[3] = second compound 0.1 µM, first compound 0.316 µM
[4] = second compound 0.1 µM, first compound 1 µM
[5] = second compound 0.316 µM, first compound 0.0316 µM
[6] = second compound 0.316 µM, first compound 0.1 µM
[7] = second compound 0.316 µM, first compound 0.316 µM
[8] = second compound 0.316 µM, first compound 1 µM
[9] = second compound 1 µM, first compound 0.0316 µM
[10] = second compound 1 µM, first compound 0.1 µM
[11] = second compound 1 µM, first compound 0.316 µM
[12] = second compound 1 µM, first compound 1 µM
[13] = second compound 3.16 µM, first compound 0.0316 µM
[14] = second compound 3.16 µM, first compound 0.1 µM
[15] = second compound 3.16 µM, first compound 0.316 µM
[16] = second compound 3.16 µM, first compound 1 µM
[17] = second compound 10 µM, first compound 0.0316 µM
[18] = second compound 10 µM, first compound 0.1 µM
[19] = second compound 10 µM, first compound 0.316 µM
[20] = second compound 10 µM, first compound 1 µM
[21] = second compound 0.1 µM, first compound 0.00316 µM
[22] = second compound 0.1 µM, first compound 0.01 µM
[23] = second compound 0.316 µM, first compound 0.00316 µM
[24] = second compound 0.316 µM, first compound 0.01 µM
[25] = second compound 1 µM, first compound 0.00316 µM
[26] = second compound 1 µM, first compound 0.01 µM
[27] = second compound 3.16 µM, first compound 0.00316 µM
[28] = second compound 3.16 µM, first compound 0.01 µM
[29] = second compound 10 µM, first compound 0.00316 µM
[30] = second compound 10 µM, first compound 0.01 µM
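Throughout, for viability, T/C: spheroids exposed to compounds for 7 days.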

C=CC(=O)N1CCN(c2nc(=O)n(-c3c(C)ccnc3C(C)C)c3nc(-c4c(O)cccc4F)c(F)cc23)C(C)C1 (stereo not given) + Cc1c(S(C)(=O)=O)c(-c2cc(F)cc(N3CCN(c4ccc(NS(=O)(=O)c5ccc(NC(CCN6CCC(C(=O)OCCCP(=O)(O)O)CC6)CSc6ccccc6)c(S(=O)(=O)C(F)(F)F)c5)cc4)CC3)c2)c(-c2ccc(Cl)cc2)n1C(C)C
> 10000 nM: IC50 (second compound 0.1 µM) | IC50 (second compound 0.316 µM) | IC50 (second compound 1 µM) | IC50 (second compound 3.16 µM) | IC50 (second compound 10 µM)
inactive: viability, T/C [1] 92.3% | viability, T/C [2] 111% | viability, T/C [3] 100% | viability, T/C [4] 86% | viability, T/C (second compound 0.1 µM, first compound 3.16 µM) 84.9% | viability, T/C (second compound 0.1 µM, first compound 10 µM) 79.6% | viability, T/C [5] 128% | viability, T/C [6] 114% | viability, T/C [7] 118% | viability, T/C [8] 86.9% | viability, T/C (second compound 0.316 µM, first compound 3.16 µM) 78.9% | viability, T/C (second compound 0.316 µM, first compound 10 µM) 87.7% | viability, T/C [9] 119% | viability, T/C [10] 123% | viability, T/C [11] 125% | viability, T/C [12] 104% | viability, T/C (second compound 1 µM, first compound 3.16 µM) 78.7% | viability, T/C (second compound 1 µM, first compound 10 µM) 90.9% | viability, T/C [13] 153% | viability, T/C [14] 122% | viability, T/C [15] 138% | viability, T/C [16] 133% | viability, T/C (second compound 3.16 µM, first compound 3.16 µM) 99.2% | viability, T/C (second compound 3.16 µM, first compound 10 µM) 99% | viability, T/C [17] 165% | viability, T/C [18] 186% | viability, T/C [19] 165% | viability, T/C [20] 187% | viability, T/C (second compound 10 µM, first compound 3.16 µM) 133% | viability, T/C (second compound 10 µM, first compound 10 µM) 105%

COc1c(OCCCN2CCOCC2)ccc2c3n(c(=NC(=O)c4cnc(N)nc4)nc12)CCN3 + Cc1c(S(C)(=O)=O)c(-c2cc(F)cc(N3CCN(c4ccc(NS(=O)(=O)c5ccc(NC(CCN6CCC(C(=O)OCCCP(=O)(O)O)CC6)CSc6ccccc6)c(S(=O)(=O)C(F)(F)F)c5)cc4)CC3)c2)c(-c2ccc(Cl)cc2)n1C(C)C
21.8 nM: IC50 (second compound 0.1 µM)
active: viability, T/C [2] 7.28% | viability, T/C [3] 1.11% | viability, T/C [4] 0.49% | viability, T/C [6] 5.34% | viability, T/C [7] 0.77% | viability, T/C [8] 0.4% | viability, T/C [10] 3.92% | viability, T/C [11] 0.8% | viability, T/C [12] 0.9% | viability, T/C [13] 8.79% | viability, T/C [14] 1.69% | viability, T/C [15] 0.26% | viability, T/C [16] 0.49% | viability, T/C [17] 9.29% | viability, T/C [18] 0.84% | viability, T/C [19] 0.24% | viability, T/C [20] 1.51%
4.6 nM: IC50 (second compound 10 µM)
4.99 nM: IC50 (second compound 3.16 µM)
9.37 nM: IC50 (second compound 1 µM)
13.8 nM: IC50 (second compound 0.316 µM)
inactive: viability, T/C [21] 148% | viability, T/C [22] 91.5% | viability, T/C [1] 30.1% | viability, T/C [23] 129% | viability, T/C [24] 62.6% | viability, T/C [5] 17% | viability, T/C [25] 102% | viability, T/C [26] 46.9% | viability, T/C [9] 12.7% | viability, T/C [27] 64.2% | viability, T/C [28] 28.2% | viability, T/C [29] 63.7% | viability, T/C [30] 21.6%

NC(=O)C(=Cn1cnc(-c2cc(C(F)(F)F)cc(C(F)(F)F)c2)n1)c1cncnc1 + Cc1c(S(C)(=O)=O)c(-c2cc(F)cc(N3CCN(c4ccc(NS(=O)(=O)c5ccc(NC(CCN6CCC(C(=O)OCCCP(=O)(O)O)CC6)CSc6ccccc6)c(S(=O)(=O)C(F)(F)F)c5)cc4)CC3)c2)c(-c2ccc(Cl)cc2)n1C(C)C
18.8 nM: IC50 (second compound 0.316 µM)
active: viability, T/C (second compound 0.1 µM, first compound 0.0949 µM) 4.69% | viability, T/C (second compound 0.1 µM, first compound 0.3 µM) 1.77% | viability, T/C (second compound 0.316 µM, first compound 0.0949 µM) 2.73% | viability, T/C (second compound 0.316 µM, first compound 0.3 µM) 1.39% | viability, T/C (second compound 1 µM, first compound 0.0949 µM) 2.27% | viability, T/C (second compound 1 µM, first compound 0.3 µM) 1.86% | viability, T/C (second compound 3.16 µM, first compound 0.0949 µM) 1.2% | viability, T/C (second compound 3.16 µM, first compound 0.3 µM) 0.46% | viability, T/C (second compound 10 µM, first compound 0.0949 µM) 1.03% | viability, T/C (second compound 10 µM, first compound 0.3 µM) 0.35%
9.39 nM: IC50 (second compound 10 µM)
13.5 nM: IC50 (second compound 3.16 µM)
17.3 nM: IC50 (second compound 1 µM)
25.4 nM: IC50 (second compound 0.1 µM)
inactive: viability, T/C (second compound 0.1 µM, first compound 0.000949 µM) 102% | viability, T/C (second compound 0.1 µM, first compound 0.003 µM) 108% | viability, T/C (second compound 0.1 µM, first compound 0.00949 µM) 116% | viability, T/C (second compound 0.1 µM, first compound 0.03 µM) 40.1% | viability, T/C (second compound 0.316 µM, first compound 0.000949 µM) 111% | viability, T/C (second compound 0.316 µM, first compound 0.003 µM) 159% | viability, T/C (second compound 0.316 µM, first compound 0.00949 µM) 84.5% | viability, T/C (second compound 0.316 µM, first compound 0.03 µM) 28.7% | viability, T/C (second compound 1 µM, first compound 0.000949 µM) 144% | viability, T/C (second compound 1 µM, first compound 0.003 µM) 135% | viability, T/C (second compound 1 µM, first compound 0.00949 µM) 86.1% | viability, T/C (second compound 1 µM, first compound 0.03 µM) 16.6% | viability, T/C (second compound 3.16 µM, first compound 0.000949 µM) 171% | viability, T/C (second compound 3.16 µM, first compound 0.003 µM) 151% | viability, T/C (second compound 3.16 µM, first compound 0.00949 µM) 65.4% | viability, T/C (second compound 3.16 µM, first compound 0.03 µM) 14.7% | viability, T/C (second compound 10 µM, first compound 0.000949 µM) 183% | viability, T/C (second compound 10 µM, first compound 0.003 µM) 135% | viability, T/C (second compound 10 µM, first compound 0.00949 µM) 47.7% | viability, T/C (second compound 10 µM, first compound 0.03 µM) 13.5%

NC1CCC(NC2CC2c2ccccc2)CC1 (stereo not given) + Cc1c(S(C)(=O)=O)c(-c2cc(F)cc(N3CCN(c4ccc(NS(=O)(=O)c5ccc(NC(CCN6CCC(C(=O)OCCCP(=O)(O)O)CC6)CSc6ccccc6)c(S(=O)(=O)C(F)(F)F)c5)cc4)CC3)c2)c(-c2ccc(Cl)cc2)n1C(C)C
inactive: viability, T/C (second compound 0.1 µM, first compound 0.000316 µM) 85.6% | viability, T/C (second compound 0.1 µM, first compound 0.001 µM) 83% | viability, T/C [21] 85.6% | viability, T/C [22] 81% | viability, T/C [1] 88.7% | viability, T/C [2] 91.8% | viability, T/C (second compound 0.316 µM, first compound 0.000316 µM) 99.9% | viability, T/C (second compound 0.316 µM, first compound 0.001 µM) 107% | viability, T/C [23] 90.5% | viability, T/C [24] 88.2% | viability, T/C [5] 96% | viability, T/C [6] 84.1% | viability, T/C (second compound 1 µM, first compound 0.000316 µM) 97.6% | viability, T/C (second compound 1 µM, first compound 0.001 µM) 101% | viability, T/C [25] 91.5% | viability, T/C [26] 82.6% | viability, T/C [9] 84% | viability, T/C [10] 92.4% | viability, T/C (second compound 3.16 µM, first compound 0.000316 µM) 134% | viability, T/C (second compound 3.16 µM, first compound 0.001 µM) 99.3% | viability, T/C [27] 93% | viability, T/C [28] 88.3% | viability, T/C [13] 88.1% | viability, T/C [14] 104% | viability, T/C (second compound 10 µM, first compound 0.000316 µM) 154% | viability, T/C (second compound 10 µM, first compound 0.001 µM) 127% | viability, T/C [29] 111% | viability, T/C [30] 115% | viability, T/C [17] 121% | viability, T/C [18] 92.3%
> 100 nM: IC50 (second compound 0.1 µM) | IC50 (second compound 0.316 µM) | IC50 (second compound 1 µM) | IC50 (second compound 3.16 µM) | IC50 (second compound 10 µM)
